Laboratory results as given in US9376470B2, “Polypeptide having angiogenesis-inducing activity and antibacterial activity, and use thereof for medical purposes” (FunPep Inc., priority 2008, dated 2016).
Converted amounts (≈) assume the structure as drawn.

Columns and labels:
Assay type in all cases: cell-based
[1] = system: Pseudomonas aeruginosa ATCC 27853; experiment: microbe, parasite or virus in culture; details: Pseudomonas aeruginosa, ATCC27853; 37° C., 20 hours
Method: (§1) ATP (%) of the antibacterial activity was measured in the same manner as mentioned above, and the “minimum inhibitory concentration (MIC)” was measured as follows. MIC is the lowest concentration of an agent that may inhibit the growth of a bacterium. MIC is used as a parameter for the efficacy of an antibacterial agent, for the strength of bacterial sensitivity, or the like. The bacteria can grow (proliferate) when the concentration is not higher than MIC, and cannot grow when the concentration is higher than MIC. […] (CLSI), but, in this Example, its measurement was carried out by a broth microdilution method in accordance with “M100-S17/M7-A7” (Performance Standards for Antimicrobial Susceptibility Testing; Seventeenth Informational Supplement, Vol. 27 No. 1) published by CLSI on January, 2007. That is, sensitivity test of agents was carried out using a microtiter plate or test tubes. The bacteria were cultured in the liquid media for 4 to 6 hours, and thereafter absorbances at A600 were measured. Bacterial suspensions were diluted with Mueller-Hinton broth (MHB) according to McFarland #0.5. Each strain was added so as to attain about 10^5 CFU/ml (final concentration). Each peptide was prepared to an optional concentration, and the solutions were serially diluted from the concentration. The polypeptide at each concentration stage was added to a microplate or test tubes, and the bacterial suspension was added thereto. […] The plate was incubated at 37° C. for 20 hours, the lowest concentration where bacterial growth was inhibited was regarded as the minimum inhibitory concentration. With respect to each strain, Escherichia coli: ATCC 25922 (Escherichia coli ATCC 25922), Pseudomonas aeruginosa: ATCC 27853 (Pseudomonas aeruginosa ATCC 27853), Staphylococcus aureus: ATCC29213 (Staphylococcus aureus ATCC29213), Klebsiella pneumoniae: JCM 1662 (Klebsiella pneumoniae JCM 1662), enterobacteria (1): JCM 1232 (Enterobacter cloacae JCM 1232), enterobacteria (2): JCM 1235 (Enterobacter aerogenes JCM 1235), and Staphylococcus epidermidis: JCM 2414 (Staphylococcus epidermidis JCM 2414), were used. […] As the concentrations of the agents in ATP assay, the concentrations as described in the Tables were used.

[2] = system: Staphylococcus epidermidis JCM 2414; experiment: microbe, parasite or virus in culture; details: Staphylococcus epidermidis, JCM2414; 37° C., 20 hours
Method: as §1

[3] = system: Staphylococcus aureus ATCC29213; experiment: microbe, parasite or virus in culture; details: 37° C., 20 hours
Method: as §1

[4] = system: Pseudomonas aeruginosa ATCC27853; experiment: Antibacterial activity, ATP assay (BacTiter-Glo); details: for ATP (%) mean, Pseudomonas aeruginosa: Table 4-1, ATP assay concentration: peptides 10, TOB 1.0, CPFX 1.0, OX 0.5, MEPM 1.0 μg/ml
Method: (§2) The antibacterial activity of the polypeptides was measured using an ATP assay method. That is, using BacTiter-Glo Microbial Cell Viability Assay kit available from PROMEGA, the antibacterial activity of the peptides was evaluated from the viability of bacteria. […] With respect to the strains, Staphylococcus aureus ATCC29213 (S. aureus ATCC29213) as Gram-positive bacteria, or, alternatively, Pseudomonas aeruginosa (P. aeruginosa ATCC27853) as Gram-negative bacteria, was used. The bacteria were cultured in media for 3 to 4 hours, and thereafter absorbances at A600 were measured. Bacterial suspensions were diluted with Mueller-Hinton broth (MHB) according to McFarland #0.5. Each strain was added so as to attain about 0.5−1×10^5 CFU/mL (final concentration) in terms of Escherichia coli. […] A solution to which the peptides were not added was considered as a negative control, and a solution to which tobramycin (TOB) was added was considered as a positive control. […] Relative values were calculated by comparison with the negative control, and these values were regarded as the viability. ATP (%) of the antibacterial activity was measured in the same manner as mentioned above, and the “minimum inhibitory concentration (MIC)” was measured as follows. MIC is the lowest concentration of an agent that may inhibit the growth of a bacterium. MIC is used as a parameter for the efficacy of an antibacterial agent, for the strength of bacterial sensitivity, or the like. The bacteria can grow (proliferate) when the concentration is not higher than MIC, and cannot grow when the concentration is higher than MIC. Its measurement is carried out according to a method defined as a standard method by Japanese Society of Chemotherapy or CLINICAL AND LABORATORY […] (CLSI), but, in this Example, its measurement was carried out by a broth microdilution method in accordance with “M100-S17/M7-A7” (Performance Standards for Antimicrobial Susceptibility Testing; Seventeenth Informational Supplement, Vol. 27 No. 1) published by CLSI on January, 2007. That is, sensitivity test of agents was carried out using a microtiter plate or test tubes. With respect to each strain, Escherichia coli: ATCC 25922 (Escherichia coli ATCC 25922), Pseudomonas aeruginosa: ATCC 27853 (Pseudomonas aeruginosa ATCC 27853), Staphylococcus aureus: ATCC29213 (Staphylococcus aureus ATCC29213), Klebsiella pneumoniae: JCM 1662 (Klebsiella pneumoniae JCM 1662), enterobacteria (1): JCM 1232 (Enterobacter cloacae JCM 1232), enterobacteria (2): JCM 1235 (Enterobacter aerogenes JCM 1235), and Staphylococcus epidermidis: JCM 2414 (Staphylococcus epidermidis JCM 2414), were used. […] As the concentrations of the agents in ATP assay, the concentrations as described in the Tables were used.

[5] = system: Staphylococcus aureus ATCC29213; experiment: Antibacterial activity, ATP assay (BacTiter-Glo)
Method: as §2

[6] = Table 3, peptides 10 μg/mL, 3 hours, ATP relative to negative control

Row | Structure (SMILES) | MIC [1] [µg/mL] | MIC [2] [µg/mL] | MIC [3] [µg/mL] | ATP (%) mean, Pseudomonas aeruginosa [4] [%] | Viability (%) Pseudomonas aeruginosa [4, 6] [%] | Viability (%) Staphylococcus aureus [5, 6] [%] | ATP (%) mean, Staphylococcus aureus ([5]; Table 4-1, ATP assay concentration: peptides 10, TOB 1.0, OX 0.5 μg/ml) [%]
1 | C[C@@H](O)[C@H]1C(=O)N2C(C(=O)O)=C(S[C@@H]3CN[C@H](C(=O)N(C)C)C3)[C@H](C)[C@H]12 [MEPM, meropenem, reference compound] | 0.25 to 1 (≈ 0.652 to 2.61 µM) | 0.125 (≈ 0.326 µM) | 0.03 to 0.12 (≈ 0.0782 to 0.313 µM) | 20.2 |  |  | 
2 | NC[C@H]1O[C@H](O[C@H]2[C@H](O)[C@@H](O[C@H]3O[C@H](CO)[C@@H](O)[C@H](N)[C@H]3O)[C@H](N)C[C@@H]2N)[C@H](N)C[C@@H]1O [TOB, tobramycin, reference compound] | 0.25 to 1 (≈ 0.535 to 2.14 µM) | 1 (≈ 2.14 µM) | 0.12 to 1 (≈ 0.257 to 2.14 µM) | 1.7 | 1.8 | 3.5 | 3.1
